For one data set, the system named is Human betaherpesvirus 5. Description: Antiviral activity against HCMV AD169 in HFF cells by plaque reduction assay. The data set is classed as functional, organism-based. The note with it: Human betaherpesvirus 5, AD169, HFF.
The subject of a further data set is Human gammaherpesvirus 4. Description: Antiviral activity against EBV in Daudi cells by ELISA. Particulars: human gammaherpesvirus 4, Daudi. The data set is classed as functional, organism-based. A general note: ELISA stands for enzyme-linked immunosorbent assay.
The nature of data set [1]: Cytotoxicity against HepG2 2.2.15 cells assessed as inhibition of uptake of neutral red dye after 24 hrs. Type of data set: cell-based. Particulars: human.
Another data set has as its system Human alphaherpesvirus 3. Put plainly: Antiviral activity against VZV Ellen in HFF cell by CPE assay. The data set is classed as functional, organism-based. The note with it: Human alphaherpesvirus 3, Ellen.
In another data set the test system is Cowpox virus. Description: Antiviral activity against Cowpox virus Brighton in HFF cells by plaque reduction assay. Type of data set: functional, organism-based.
A short description of data set [2]: Cytotoxicity against plated MRC5 cells by neutral red uptake assay. The note with it: human. The data set is classed as cell-based.
Data set [3] can be described thus: Cytotoxicity against HFF cells by neutral red uptake assay. Type of data set: cell-based. Particulars: human.
Another data set concerns Vaccinia virus. Put plainly: Antiviral activity against Vaccinia virus Copenhagen in HFF cells by plaque reduction assay. Type of data set: functional, organism-based. Particulars: Orthopoxvirus vaccinia.
Data set [4] concerns Hepatitis B virus. Put plainly: Antiviral activity against HBV in HepG2 2.2.15 cells after 24 hrs by DNA reduction assay. The data set is classed as functional, organism-based. The note with it: HepG2, 24 h.
In another data set the test system is Human alphaherpesvirus 1. Description: Antiviral activity against HSV1 in MRC5 cells by DNA reduction assay. Type of data set: functional, organism-based. Particulars: Human alphaherpesvirus 1, MRC5.
Data set [5] deals with Hepatitis B virus. Description: Antiviral activity against HBV with lamivudine-resistant polymerase L180M/M204V double mutant in Huh7 cells after 5 days. Type of data set: functional, organism-based. Particulars: Huh-7, 120 h.
Data set [6] in a line: Selectivity index, ratio of CC50 for HepG2 2.2.15 cells to EC50 for HBV. The data set is classed as functional.
Data set [7] has as its system Hepatitis B virus. Put plainly: Antiviral activity against HBV with lamivudine-resistant polymerase M204V mutant in Huh7 cells after 5 days. Particulars: Huh-7, 120 h. The data set is classed as functional, organism-based.
The nature of data set [8]: Cytotoxicity against MT2 cells after 72 hrs. The data set is classed as cell-based. Particulars: human.
For data set [9], the system named is Human immunodeficiency virus 1. Put plainly: Antiviral activity against HIV1 LAI in MT2 cells assessed as inhibition of p24 antigen production. The data set is classed as functional, organism-based. Particulars: Human immunodeficiency virus 1, LAI.
For data set [10], the system named is Hepatitis B virus. Put plainly: Antiviral activity against HBV with […]-resistant polymerase N236T mutant in Huh7 cells after 5 days. Type of data set: functional, organism-based. Particulars: Huh-7, 120 h.
The test system of data set [11] is Hepatitis B virus. Put plainly: Antiviral activity against HBV with lamivudine-resistant polymerase M204I mutant in Huh7 cells after 5 days. The data set is classed as functional, organism-based. The note with it: Huh-7, 120 h.
The test system of data set [12] is Hepatitis B virus. Put plainly: Antiviral activity against wild type HBV in Huh7 cells after 5 days. The data set is classed as functional, organism-based. The note with it: Huh-7, 120 h.
The test system of data set [13] is Hepatitis B virus. Description: Antiviral activity against HBV with lamivudine-resistant polymerase L180M mutant in Huh7 cells after 5 days. Particulars: Huh-7, 120 h. Type of data set: functional, organism-based.
Data set [14] can be described thus: Cytotoxicity against Huh7 cells. Type of data set: cell-based, Huh-7. Particulars: human.
Data set [15] is described as follows: Cytotoxicity against Daudi cells. Particulars: human. Type of data set: cell-based.

The results in this text go back to ChEMBL document CHEMBL1142203, “Antiviral activities of novel 5-phosphono-pent-2-en-1-yl nucleosides and their alkoxyalkyl phosphonoesters” (Antimicrob Agents Chemother, 2007).

With `Nc1ncnc2c1ncn2C/C=C\CCP(=O)(O)O`, the EC50 (in general, the concentration needed to bring the measured effect to its halfway point) in the data set with Human betaherpesvirus 5 was above 100 µM; in the data set on Human gammaherpesvirus 4, above 4 µM; in the data set with Human alphaherpesvirus 3, above 300 µM; in the data set on Cowpox virus it was above 100 µM; with Vaccinia virus it was above 100 µM; with Hepatitis B virus [4], above 30 µM. Besides, the EC50 with Human alphaherpesvirus 1 is above 30 µM. In addition, in data set [1], the CC50 (usually the concentration at which the toxic effect on the cells reaches its halfway point) at 24 h was 639 µM. Further, the 50% cytotoxic concentration (CC50) in [2] and in data set [3] was above 100 µM each time.
On to `CCCCCCCCCCCCCCCCOCCCOP(=O)(O)CC/C=C\Cn1ccc(N)nc1=O`, for which the EC50 is 2.9 µM with Human betaherpesvirus 5; above 100 µM in the data set with Hepatitis B virus [5]; 3.7 µM with Human alphaherpesvirus 3; above 20 µM with Cowpox virus; above 100 µM in the data set with Hepatitis B virus [7]; 2.5 µM in data set [9]. In addition, the EC50 with Hepatitis B virus [10] is 4 µM; with Hepatitis B virus [11] it was above 100 µM; with Hepatitis B virus [12], 3.4 µM; in the data set with Hepatitis B virus [13] it was above 100 µM; with Vaccinia virus, above 20 µM; in the data set with Hepatitis B virus [4], 3.9 µM. In the data set with Human alphaherpesvirus 1, the EC50 turned out to be 4.7 µM. Moreover, in [6], the “Ratio CC50/EC50” value turned out to be 159. The CC50 at 24 h in [1] turned out to be 621 µM. Further, the CC50 at 72 h in [8] is 3.3 µM. Moreover, the CC50 was found to be 56 µM in [3] and 523 µM in [14].
Regarding `CCCCCCCCCCCCCCCCOCCCOP(=O)(O)CC/C=C\Cn1cnc2c(N)ncnc21`, the concentration giving a half-maximal response (EC50) in the data set with Human betaherpesvirus 5 is 15.7 µM; in the data set with Human gammaherpesvirus 4 it was 0.1 µM; with Hepatitis B virus [5] it was 8.1 µM; in the data set on Human alphaherpesvirus 3, above 20 µM; in the data set with Cowpox virus, above 20 µM; with Hepatitis B virus [7], 9 µM. The EC50 in the data set with Hepatitis B virus [10] was 10 µM; in the data set on Hepatitis B virus [11], 7.7 µM; in the data set on Hepatitis B virus [12], 9.2 µM; in the data set with Hepatitis B virus [13], 15 µM; with Vaccinia virus it was above 30 µM; with Hepatitis B virus [4] it was 1.5 µM. For the same compound, the EC50 in the data set on Human alphaherpesvirus 1 is 18 µM. Also, the “Ratio CC50/EC50” value in [6] is 77. In data set [1], the CC50 at 24 h came to 116 µM. Further, the CC50 is 43 µM in data set [3], above 100 µM in data set [15] and 110 µM in data set [14].
For `O=c1nc(O)ccn1C/C=C\CCP(=O)(O)O`, the concentration for a half-maximal effect (EC50) in the data set on Human betaherpesvirus 5 was above 100 µM; with Human alphaherpesvirus 3 it was above 300 µM; with Cowpox virus, above 100 µM; with Vaccinia virus, above 100 µM; in the data set on Hepatitis B virus [4], above 30 µM; in the data set on Human alphaherpesvirus 1 it was above 30 µM. For the same compound, in [1], the CC50 at 24 h came out at 712 µM. The CC50 in [2] and in data set [3] was above 100 µM each time.
For the compound `CCCCCCCCCCCCCCCCOCCCOP(=O)(O)CC/C=C\Cn1cnc2c(=O)nc(N)[nH]c21`, the EC50 in the data set on Human betaherpesvirus 5 is 1.8 µM; in the data set with Human gammaherpesvirus 4, 48 µM; in the data set with Hepatitis B virus [5] it was above 100 µM; in the data set with Human alphaherpesvirus 3, 12.2 µM; in the data set on Cowpox virus it was 11 µM; in the data set with Hepatitis B virus [7], 16 µM. Moreover, the EC50 with Hepatitis B virus [10] is 6.3 µM; in the data set on Hepatitis B virus [11], 13 µM; with Hepatitis B virus [12] it was 8.8 µM; in the data set with Hepatitis B virus [13], above 100 µM; with Vaccinia virus it was 7.5 µM; in the data set on Hepatitis B virus [4] it was 2.4 µM. Also, in the data set on Human alphaherpesvirus 1, the response was half-maximal at 5.8 µM (EC50). For the same compound, the “Ratio CC50/EC50” value in [6] is recorded as above 417. Moreover, the CC50 at 24 h in data set [1] was above 1000 µM. The CC50 in data set [3] is above 100 µM; in [14] it was 929 µM.
Turning to `Nc1nc(=O)c2ncn(C/C=C\CCP(=O)(O)O)c2[nH]1`, the EC50 with Human betaherpesvirus 5 is 68.4 µM; in the data set with Human alphaherpesvirus 3, 7.2 µM; in the data set with Cowpox virus, above 100 µM; in the data set with Vaccinia virus, above 100 µM; in the data set with Hepatitis B virus [4] it was above 30 µM; in the data set with Human alphaherpesvirus 1 it was above 30 µM. Also, in data set [1], the CC50 at 24 h is 610 µM. Further, the CC50 in data set [2] and in [3] was above 100 µM throughout.
As to `Cc1cn(C/C=C\CCP(=O)(O)O)c(=O)[nH]c1=O`, the EC50 was above 100 µM with Human betaherpesvirus 5; above 300 µM with Human alphaherpesvirus 3; above 100 µM in the data set on Cowpox virus; above 100 µM in the data set with Vaccinia virus; above 30 µM in the data set with Hepatitis B virus [4]; above 30 µM in the data set on Human alphaherpesvirus 1. Besides, the CC50 at 24 h in [1] came to 620 µM. Moreover, the CC50 in data set [2] and in data set [3] was above 100 µM each time.
With `Nc1ccn(C/C=C\CCP(=O)(O)O)c(=O)n1`, the EC50 in the data set on Human betaherpesvirus 5 is above 100 µM; in the data set with Human alphaherpesvirus 3, above 60 µM; in the data set with Cowpox virus, above 100 µM; in the data set on Vaccinia virus it was above 100 µM; in the data set on Hepatitis B virus [4], above 30 µM; in the data set on Human alphaherpesvirus 1, above 30 µM. Also, in [1], the CC50 at 24 h was found to be 600 µM. Also, the CC50 in data set [2] and in data set [3] was above 100 µM throughout.
With `CCCCCCCCCCCCCCCCOCCCOP(=O)(O)CC/C=C\Cn1cc(C)c(=O)[nH]c1=O`, the EC50 was 0.66 µM with Human betaherpesvirus 5; above 100 µM in the data set on Hepatitis B virus [5]; 3 µM in the data set with Human alphaherpesvirus 3; above 20 µM in the data set on Cowpox virus; above 100 µM in the data set with Hepatitis B virus [7]; 1 µM in data set [9]. Besides, the EC50 is 3.8 µM with Hepatitis B virus [10]; above 100 µM with Hepatitis B virus [11]; 3 µM with Hepatitis B virus [12]; above 100 µM with Hepatitis B virus [13]; above 20 µM in the data set with Vaccinia virus; 2 µM with Hepatitis B virus [4]. This compound displayed an EC50 in the data set on Human alphaherpesvirus 1 of 0.9 µM. Moreover, the “Ratio CC50/EC50” value in [6] came to 61. Besides, the CC50 at 24 h in data set [1] amounted to 122 µM. Half-maximal cytotoxicity in data set [8] (CC50 at 72 h) was put at 1.3 µM. The CC50 in data set [3] is above 100 µM; in data set [14], 120 µM.
`CCCCCCCCCCCCCCCCOCCCOP(=O)(O)CC/C=C\Cn1ccc(=O)[nH]c1=O`: the EC50 is above 20 µM with Human betaherpesvirus 5; above 100 µM with Cowpox virus; above 100 µM in the data set on Vaccinia virus; above 30 µM in the data set on Hepatitis B virus [4]; above 30 µM with Human alphaherpesvirus 1. Also, the CC50 at 24 h in data set [1] was 155 µM. This compound returned a CC50 in data set [3] above 100 µM.
